Molecular target: S-BG (Novozymes SP188 from Sigma), commercial beta-glucosidase
Experiment: BG kinetics, cellobiose hydrolysis assay (HPLC) with glucose as competitive inhibitor, S-BG
Type: biochemical
Conditions: pH 4.8, 50° C.
Source text: The kinetic properties of beta glucosidase are important for cellulosic hydrolysis, since in commercial situations a wide range of substrate concentrations and different product inhibition conditions will be encountered. In this example, a Michaelis-Menten kinetics model was used to describe BG kinetics. To determine these kinetic properties, BG activity assays using standard substrates pNPG and cellobiose were employed. yEdQ745-BG (wild type) and yEdQ885-BG (improved), were compared with two commercial BGs, A-BG (Accellerase®) BG from Dupont) and S-BG (Novozymes SP188 from Sigma).
BG activity assay using cellobiose is the other standard assay to measure BG or cellobiase activity, which utilizes hydrolysis of cellobiose by cellobiase into two molecules of glucose, the last step of enzymatic hydrolysis of cellulose. One cellobiase unit (commonly termed as CBU) is defined as the amount of enzyme that converts […] of cellobiose or produces 2 μmol of glucose per min. Briefly, to determine BG activity, 25 μL of diluted enzyme in 50 mM citrate buffer (pH 4.8) equilibrated to 50° C. was mixed with 25 μL cellobiose (or cellobiose/glucose mixture for the kinetic study) to start the reaction. The mixture was incubated at 50° C. for 10 min, and the reaction was terminated by incubating the mixture at 99° C. for 5 min. Different methods are available to measure the glucose produced in the assays. For the kinetic study, HPLC was used.
To determine kinetic properties using cellobiose substrate, duplicate assays with cellobiose concentrations ranging from 0.47 to 15 mM and glucose concentrations of 0, 0.9, 4.5, 6.75, and 8.1 (for A-BG) or 9 (for all the other three BGs) g/L were performed. As for pNPG substrate, the range of cellobiose substrate concentration was chosen to show detectable activity at the lowest substrate concentration and saturation stage at high substrate concentration. However, in contrast to the pNPG substrate, when there was still some activity left at glucose concentration up to 36 g/L, most of the BG activity was lost at an inhibitor level of 9 g/L when cellobiose substrate was used. […] It should also be noted that colorimetric glucose assay cannot provide activity results for inhibitory glucose levels above 0.9 g/L after several trials. Therefore, HPLC measurements were used for kinetic studies using cellobiose substrate. It should be pointed out that the HPLC method may not be sensitive enough either to capture BG activity under more severe glucose inhibition conditions than 9 g/L of glucose. Moreover, theoretically there are two ways to measure BG activity by HPLC when cellobiose is used as the substrate: tracking consumption of cellobiose or tracking production of glucose. However, as shown by the example of one set of results from S-BG in Table 3, tracking glucose is problematic due to measurement sensitivity. In Table 3, A % is defined as follows and is an indicator of measurement sensitivity, since the difference of substrate or product concentrations before and after reaction was used to determine BG activity. Δ%=(start conc. of cellobiose−end conc. of cellobiose)/start conc. of cellobiose×100% (3) Δ%=(end conc. of glucose−start conc. of glucose)/start conc. of glucose×100% (4)
With increasing inhibitor (glucose) level, Δ% is decreasing. For the case of tracking glucose, Δ% was too small to be reliable when 4.5 g/L of glucose was added at the beginning. […] Thus, the approach of tracking cellobiose was chosen due to its higher detection sensitivity. In the substrate range used to determine kinetic parameters (0.47 to 30 mM for A-BG and 0.47 to 15 mM for the other three BGs), the detection sensitivity is reasonable.
A similar simultaneous nonlinear regression method based on the competitive inhibition equation expressed in Equation (1) was used to determine kinetic parameters of BG towards cellobiose. […]

`OC[C@H]1OC(O)[C@H](O)[C@@H](O)[C@@H]1O` (some centres unmarked) [glucose] showed a Ki (cellobiose substrate, competitive inhibition) of 3.13 ± 0.76 mM and a Km/Ki (inhibitor influence, Km for cellobiose / Ki for glucose) of 0.51.
